Tests used:
[1] = Plasma pharmacokinetics of oxyclozanide after topical Composition K in dogs (Example 5); type: in vivo, dog
Description: The cutaneous route (topical administration) was the route of administration for composition K on dogs. Composition K was applied evenly along the backbone starting from the base of the tail to the back of the neck.
For all animals of group A, a blood sample of around 4 ml was collected from the jugular vein using tubes containing lithium heparin at the following times (with tolerance of 10%): D-3a, D0a+1h, D0a+6h, D0a+12h, D0a+16h, D0a+24h, D0a+32h, D0a+48h, D3a, D5a et D7a.
Centrifugation (around 3500 revolutions/min, for 15 minutes at +4° C.) was performed a maximum of 30 minutes after sampling. The plasma was collected and then divided into two aliquots in tubes (Nunc 1.8 ml type) as follows: • S1 aliquot: around 0.5 ml • S2 aliquot: the remainder of the plasma (more than 0.5 ml)
The pharmacokinetic analysis was performed using Phoenix software (version 6.3, Pharsight, USA). Data points indicated as “missing” were systematically ignored during the calculation and therefore have no effect on the results. A missing status is assigned and no flag symbol is used. Values were excluded if, in the judgement of the pharmacokineticist, they were deemed not to be “[…].” If outliers were suspected, they were identified using the Outlier identification procedure of STATGRAPHICS.

in vivo = settings: dog

SMILES: O=C(Nc1cc(Cl)cc(Cl)c1O)c1c(O)c(Cl)cc(Cl)c1Cl [Oxyclozanide]
- AUC(0-inf) ([1]; dog, plasma, topical or ocular, topical single 20 mg/kg Composition K, read-out: AUCinf in plasma (first value of the comparison, presumably Example 5)): 60600 ng·h/mL
- concentrations of oxyclozanide in plasma after topical administration ([1]; topical 20 mg/kg Composition K): Low concentrations
- bioavailability after topical administration (Example 5, by comparison of AUCinf with Example 4) ([1]; topical 20 mg/kg Composition K, not calculated, no intravenous route in this study): about 12%
- Vd (in vivo; iv, 2.5 mg/kg): ~0.6 L/kg
- half-life (in vivo; iv, 2.5 mg/kg): 38 h
- bioavailability (in vivo; po, 5 mg/kg): 48%
- AUC(0-inf) (in vivo; topical or ocular, 20 mg/kg): 55700 ng·h/mL
- bioavailability (in vivo; topical or ocular, 20 mg/kg): 12%

From patent US20210379085A1, “HALOGENATED SALICYLANILIDES FOR TREATING THE SYMPTOMS OF DERMATITIS” (Union Therapeutics A/S, priority 2018, published 2021)
